{"source": "patent US9777037B2", "about": "“Neurosteroid compounds” (BIONATURE E. A. LTD., priority 2007, dated 2017)", "key": {"[1]": {"system": "Bcl-2 and Bcl-xL proteins", "assay": "Western blot of anti-apoptotic Bcl-2 and Bcl-xL proteins in serum-deprived PC12 cells", "type": "cell-based, rat", "details": "10 nM neurosteroid (FIG. 4)", "protocol": "Neural-crest derived PC12 cells were cultured for 8 hours in the absence of serum, but supplemented with 10 nM of various neurosteroids. At the end of incubation cell lysates were subjected to electrophoresis through a 12% SDS-polyacrylamide gel. Then, proteins were transferred to nitrocellulose membranes, which were processed according to standard Western blotting procedures. To detect protein levels, membranes were incubated with the appropriate antibodies: Bcl-2, (Santa Cruz Biotechnology Inc., Santa Cruz, Calif., dilution 1:100) Bcl-xL (Cell Signalling Technology Inc., Beverly, Mass., dilution 1:100). A PC-based Image Analysis program was used to quantify the intensity of each band (Image Analysis, Inc., Ontario, Canada). To normalize for protein content, the blots were stripped and stained with anti-actin antibodies (Chemicon, Temecula, Calif., dilution 1:400); the concentration of each target protein was normalized versus actin."}, "Ishikawa cells": {"system": "Ishikawa cells", "assay": "Ishikawa cell growth (MTT), estrogen agonism/antagonism", "type": "cell-based, human", "description": "(§1) Treatment of postmenopausal syndromes with 17β-estradiol (E2) is associated with a higher risk of developing breast and/or endometrial cancer (Arch Intern Med. 166, 1027 (2006)). E2 stimulation of the proliferation of cancer cells is driven by estrogen receptor alpha (ERα) (Mol. Endocrinol. 13, 969 (1999)). Since BNN-50, BNN-93 and BNN-124 may form two hydrogen bonds with an O—O distance of 10.9-12.5 Å and thus may fit the ERα binding cavity (Chem. Biol. 11, 397 (2004)), it was imperative to examine the estrogen agonism/antagonism properties of these neurosteroids using human adenocarcinoma cells from breast (MCF-7 cells) and uterus (Ishikawa cells) as reporters. […] Differences between control and neurosteroid-treated cells were assessed using one-way ANOVA. […]\n(§2) To determine neurosteroid effects on the growth of MCF-7 human mammary (from ATCC) and Ishikawa endometrial adenocarcinoma cells (from ECACC), the cells were cultured at 37° C. in Dulbecco's Minimal Essential Medium (DMEM) supplemented with 10% Fetal Bovine Serum (FBS, from Biochrom) in 5% CO2 and subcultured using a trypsin 0.25%-EDTA 0.02% solution. Neurosteroid effects on the growth of the cells were assessed using MTT [3-(4,5-dimethylthiazol-2-yl)-2,5-diphenyltetrazolium bromide] and standard methodology (Chem. Biol. 11, 397 (2004)). […]"}, "MCF-7 cells": {"system": "MCF-7 cells", "assay": "MCF-7 cell growth (MTT), estrogen agonism/antagonism", "type": "cell-based, human", "description": "as §1, §2"}, "[2]": {"system": "DHEA specific membrane receptors", "assay": "[3H]DHEA competition binding on isolated PC12 cell membranes", "set-up": "species or system rat", "protocol": "PC12 rat sympathoadrenal cells were cultured in 225 cm^2 flasks and, after washing twice with PBS, they were detached from the flasks by vigorous shaking. After a centrifugation at 1500 g, they were homogenized by sonication, in a 50 mM Tris-HCl buffer pH 7.4 at 4° C., containing freshly added protease inhibitors (1 mM PMSF and 1 μg/ml aprotinin). Unbroken cells were removed by centrifugation at 1500 g (10 min at 4° C.), and membranes were collected by centrifuging at 102,000 g for 1 hr at 4° C. Membranes were washed once with Tris-HCl, briefly acidified at 4° C. (for 3 min) with 50 mM glycine (pH 5.0), and re-suspended in the same buffer. Protein content was assayed by the method of Bradford, using reagents from Bio-Rad (Hercules, Calif.). Membranes (at a final concentration of 2 mg/ml) were incubated with 5 nM [^3H]DHEA, in the absence (to determine the total binding) or presence of unlabeled neurosteroids and their synthetic spiro analogs, at concentrations varying from 10^−12 to 10^−6 M and at a final volume of 100 μl, in Tris-HCl buffer (50 mM, pH 7.4). Following a […] incubation in a water bath, at 37° C., membranes were collected on GF/B filters, prewet in 0.5% PEI solution at 4° C. The filters were washed three times with ice-cold Tris-HCl, dried, supplemented with scintillation medium (Sigma Hellas, Athens, Greece) and counted in a β-scintillation counter (Perkin Elmer, Foster City, Calif.) with 60% efficiency for Tritium."}}}
{"smiles": "C[C@]12CC[C@H](O)CC1=CCC1C2CC[C@@]2(C)C1CC[C@@]21CO1", "note": "(stereo partly drawn) [BNN-50, 17β-spiro-[5-androsten-17,2′-oxiran]-3β-ol]", "values": [{"measurement": "levels of anti-apoptotic Bcl-2 and Bcl-xL proteins", "setting": "[1]", "value": "preventing this effect"}, {"measurement": "E2 agonism (at 1 uM), Ishikawa cell growth", "setting": "Ishikawa cells", "value": "non-significant"}, {"measurement": "E2 antagonism (at 1 uM), Ishikawa cell growth", "setting": "Ishikawa cells; against E2 at 0.1 nM", "value": "non-significant"}, {"measurement": "E2 agonism (at 1 uM), MCF-7 cell growth", "setting": "MCF-7 cells", "value": "non-significant"}, {"measurement": "E2 antagonism (at 1 uM), MCF-7 cell growth", "setting": "MCF-7 cells; against E2 at 0.1 nM", "value": "non-significant"}, {"measurement": "displacement of specific [3H]DHEA binding", "setting": "[2]; at 1 μM, PC12 cell membranes", "value": "approximately 60%"}, {"measurement": "Kd", "setting": "[2]; isolated PC12 cell membranes, 5 nM [3H]DHEA (FIG. 5)", "value": 0.016, "unit": "nM"}]}
